The test system of assay [1] is T7 (DNA, G4) TGGGTTGGGTTGGGTTGGGT
As to the kind of experiment: UV-vis titration, SVD, direct fit. The note with it: 5 mM K+, 95 mM Li+; 10 mM lithium cacodylate pH 7.2; 4.3 μM NMM titrated with DNA.

Assay [2] shares this test system. Description: CD melting at 262 nm. The note with it: 5 mM K+, 95 mM Li+; 10 mM lithium cacodylate pH 7.2; ~5 μM DNA, 2 eq. NMM.
Assay [3] has as its system T8 (DNA, G4) CGGGTTGGGTTGGGTTGGGG
As to the kind of experiment: CD melting at 262 nm. The note with it: 5 mM K+, 95 mM Li+; 10 mM lithium cacodylate pH 7.2; ~5 μM DNA, 2 eq. NMM.

Assay [4] concerns T7 (DNA, G4) TGGGTTGGGTTGGGTTGGGT
As to the kind of experiment: X-ray crystallography, 2.34 Å. The note with it: 20 mM K+; annealed in 10 mM lithium cacodylate pH 7.2; 5'-5' GQ dimer, NMM on 3' G-quartet.

Assay [5] concerns T1 (DNA, G4) GGGTTGGGTTGGGTTGGG
Description: CD melting at 262 nm. The note with it: 5 mM K+, 95 mM Li+; 10 mM lithium cacodylate pH 7.2; ~5 μM DNA, 2 eq. NMM.

The test system is the same in assay [6]. Description: X-ray crystallography, 2.39 Å. The note with it: 20 mM K+; annealed in 10 mM lithium cacodylate pH 7.2; 5'-5' GQ dimer, NMM on 3' G-quartet.

Structures are written as SMILES.

What is called ΔTm is the shift of the melting midpoint relative to a reference.

For `CCc1c(C)c2cc3nc(cc4nc(cc5c(CC)c(C)c(cc1[nH]2)n5C)C(C)=C4CCC(=O)O)C(CCC(=O)O)=C3C`, the Ka in assay [1] is 18 ± 7 µM⁻¹. The thermal shift (ΔTm) stood at 19.9 ± 0.4 °C in assay [2], 17.0 ± 0.5 °C in assay [3] and 20. ± 1 °C in assay [5]. Also, the binding entry in assay [4] and in assay [6] was “yes” each time.
